Measurements published in patent publication US6750228B1, “Aromatic sulfone hydroxamic acid metalloprotease inhibitor” (priority 1997, dated 2004).

Legend:
Assay in all cases: biochemical
MMP-13 = target: T1, MMP-13 (Homo sapiens, UniProt P45452); settings: recombinant human MMP-13, MCA peptide substrate 4 μM, pH 7.5, room temperature; read-out: MMP-13 IC50
T1 construct: made in house; host or cells: baculovirus / insect cells
Outline: (§1)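 Assay buffer 100 mM Tris-HCl, 100 mM NaCl, 10 mM CaCl2, pH 7.5. Activated MMP + inhibitor, 5 min RT; then methoxycoumarin peptide substrate, 4 μM final. Readout fluorescence; IC50 calculated.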

MMP-1 = target: T2, MMP-1 (Homo sapiens, UniProt P03956); settings: recombinant human MMP-1, MCA peptide substrate 4 μM, pH 7.5, room temperature; read-out: MMP-1 IC50
T2 construct: made in house; host or cells: transfected HT-1080 cells (provided by Dr. Harold Welgus, Washington University)
T2 sequence (P03956 100-469): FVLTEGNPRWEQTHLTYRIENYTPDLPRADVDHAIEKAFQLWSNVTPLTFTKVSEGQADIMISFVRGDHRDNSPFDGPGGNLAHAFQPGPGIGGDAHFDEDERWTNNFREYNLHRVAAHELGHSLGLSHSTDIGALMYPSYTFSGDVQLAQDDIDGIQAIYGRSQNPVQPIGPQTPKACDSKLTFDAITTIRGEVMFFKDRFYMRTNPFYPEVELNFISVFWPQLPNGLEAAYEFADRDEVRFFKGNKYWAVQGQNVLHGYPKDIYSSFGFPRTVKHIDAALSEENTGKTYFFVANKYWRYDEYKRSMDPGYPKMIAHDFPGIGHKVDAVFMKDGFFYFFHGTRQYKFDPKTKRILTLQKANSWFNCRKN
Outline: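 APMA- or trypsin-activated enzymes were preincubated with inhibitor for 5 min at room temperature, then the fluorogenic substrate MCA-Pro-Leu-Gly-Leu-Dpa-Ala-Arg-NH2 was added to a final 4 μM.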

MMP-2 = target: T3, MMP-2 (Homo sapiens, UniProt P08253); settings: recombinant human MMP-2, MCA peptide substrate 4 μM, pH 7.5, room temperature; read-out: MMP-2 IC50
T3 construct: made in house; provided by Dr. Gregory Goldberg, Washington University
T3 sequence (P08253 110-660): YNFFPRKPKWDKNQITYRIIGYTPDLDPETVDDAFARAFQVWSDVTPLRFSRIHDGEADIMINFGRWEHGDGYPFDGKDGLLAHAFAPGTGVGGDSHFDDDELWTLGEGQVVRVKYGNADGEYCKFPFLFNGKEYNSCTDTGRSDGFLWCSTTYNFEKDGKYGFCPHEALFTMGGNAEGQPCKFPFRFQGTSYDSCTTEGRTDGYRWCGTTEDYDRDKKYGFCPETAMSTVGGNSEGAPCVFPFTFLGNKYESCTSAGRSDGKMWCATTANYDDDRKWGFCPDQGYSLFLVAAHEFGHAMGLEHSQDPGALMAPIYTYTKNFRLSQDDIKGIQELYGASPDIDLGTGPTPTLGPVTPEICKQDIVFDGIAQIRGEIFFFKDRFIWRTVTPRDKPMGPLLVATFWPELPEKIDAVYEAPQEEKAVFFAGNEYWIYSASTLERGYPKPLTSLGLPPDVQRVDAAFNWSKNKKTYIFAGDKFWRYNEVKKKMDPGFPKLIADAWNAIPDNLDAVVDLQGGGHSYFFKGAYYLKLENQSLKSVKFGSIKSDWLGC
Outline: as §1

Compound | IC50 (MMP-13) [nM] | IC50 (MMP-1) [nM] | IC50 (MMP-2) [nM]
CC1CC(C)CN(C(=O)C2CCN(c3ccc(S(=O)(=O)C4(C(=O)NO)CCN(C(=O)CN5CCN(CCOCCO)CC5)CC4)cc3)CC2)C1 (stereo not drawn) [Example 299] | 30.6 | > 10000 | 9000
CC1CC(C)CN(C(=O)C2CCN(c3ccc(S(=O)(=O)C4(C(=O)NO)CCN(C(=O)CN5CCC(C(N)=O)CC5)CC4)cc3)CC2)C1 (stereo not drawn) [Example 300] | 37.3 | > 10000 | > 10000
CC1CC(C)CN(C(=O)C2CCN(c3ccc(S(=O)(=O)C4(C(=O)NO)CCN(C(=O)CNCCOCCO)CC4)cc3)CC2)C1 (stereo not drawn) [Example 301] | 90 | > 10000 | > 10000
CC1CC(C)CN(C(=O)C2CCN(c3ccc(S(=O)(=O)C4(C(=O)NO)CCN(C(=O)CN(CCCN(C)C)CCCN(C)C)CC4)cc3)CC2)C1 (stereo not drawn) [Example 302] | 175 | > 10000 | > 10000
COCCN(CCOC)CC(=O)N1CCC(C(=O)NO)(S(=O)(=O)c2ccc(N3CCC(C(=O)N4CC(C)CC(C)C4)CC3)cc2)CC1 (stereo not drawn) [Example 303] | 115 | > 10000 | > 10000
CC1CC(C)CN(C(=O)C2CCN(c3ccc(S(=O)(=O)C4(C(=O)NO)CCN(C(=O)CN5CCC(O)CC5)CC4)cc3)CC2)C1 (stereo not drawn) [Example 304] | 30.6 | > 10000 | 7000
CCOC(=O)CN1CCN(CC(=O)N2CCC(C(=O)NO)(S(=O)(=O)c3ccc(N4CCC(C(=O)N5CC(C)CC(C)C5)CC4)cc3)CC2)CC1 (stereo not drawn) [Example 305] | 28.6 | > 10000 | > 10000
CC1CC(C)CN(C(=O)C2CCN(c3ccc(S(=O)(=O)C4(C(=O)NO)CCN(C(=O)CN5CCN(CCN6CCOCC6)CC5)CC4)cc3)CC2)C1 (stereo not drawn) [Example 306] | 60 | > 10000 | > 10000
COCCN1CCN(CC(=O)N2CCC(C(=O)NO)(S(=O)(=O)c3ccc(N4CCC(C(=O)N5CC(C)CC(C)C5)CC4)cc3)CC2)CC1 (stereo not drawn) [Example 307] | 40 | > 10000 | > 10000
COCCNCC(=O)N1CCC(C(=O)NO)(S(=O)(=O)c2ccc(N3CCC(C(=O)N4CC(C)CC(C)C4)CC3)cc2)CC1 (stereo not drawn) [Example 309] | 48.5 | > 10000 | > 10000
CC1CC(C)CN(C(=O)C2CCN(c3ccc(S(=O)(=O)C4(C(=O)NO)CCN(C(=O)Cn5cncn5)CC4)cc3)CC2)C1 (stereo not drawn) [Example 311] | 120 | > 10000 | > 10000
CONCC(=O)N1CCC(C(=O)NO)(S(=O)(=O)c2ccc(N3CCC(C(=O)N4CC(C)CC(C)C4)CC3)cc2)CC1 (stereo not drawn) [Example 312] | 200 | > 10000 | > 10000
CCOC(=O)C1CCN(CC(=O)N2CCC(C(=O)NO)(S(=O)(=O)c3ccc(N4CCC(C(=O)N5CC(C)CC(C)C5)CC4)cc3)CC2)CC1 (stereo not drawn) [Example 313] | 77 | > 10000 | > 10000
CC1CC(C)CN(C(=O)C2CCN(c3ccc(S(=O)(=O)C4(C(=O)NO)CCN(C(=O)CN5CCCC5=O)CC4)cc3)CC2)C1 (stereo not drawn) [Example 314] | 65 | > 10000 | > 10000
CC1CC(C)CN(C(=O)C2CCN(c3ccc(S(=O)(=O)C4(C(=O)NO)CCN(C(=O)CN5CCC(C(=O)O)CC5)CC4)cc3)CC2)C1 (stereo not drawn) [Example 315] | 420 | > 10000 | > 10000
O=C(CNCc1cccnc1)N1CCC(C(=O)NO)(S(=O)(=O)c2ccc(Oc3ccc(C(F)(F)F)cc3)cc2)CC1 [Example 316] | 0.4 | > 10000 | 0.2
O=C(Cn1ccnc1)N1CCC(C(=O)NO)(S(=O)(=O)c2ccc(Oc3ccc(C(F)(F)F)cc3)cc2)CC1 [Example 317] | 1.4 | > 10000 | 0.4
O=C(CNCC(F)(F)F)N1CCC(C(=O)NO)(S(=O)(=O)c2ccc(Oc3ccc(C(F)(F)F)cc3)cc2)CC1 [Example 322] | 0.3 | > 10000 | 0.3
CN1CCN(CC(=O)N2CCC(C(=O)NO)(S(=O)(=O)c3ccc(Oc4ccc(C(F)(F)F)cc4)cc3)CC2)CC1 [Example 324] | 0.7 | > 10000 | 0.4
O=C(CN1CCCC1)N1CCC(C(=O)NO)(S(=O)(=O)c2ccc(Oc3ccc(C(F)(F)F)cc3)cc2)CC1 [Example 326] | 0.6 | > 10000 | 0.45
CCN(CC(=O)N1CCC(C(=O)NO)(S(=O)(=O)c2ccc(Oc3ccc(C(F)(F)F)cc3)cc2)CC1)Cc1ccncc1 [Example 329] | 0.9 | > 10000 | 0.4
O=C(CCCCN1CCOCC1)N1CCC(C(=O)NO)(S(=O)(=O)c2ccc(Oc3ccc(C(F)(F)F)cc3)cc2)CC1 [Example 335] | 0.9 | > 10000 | 0.15
O=C(CCCCNCc1ccccn1)N1CCC(C(=O)NO)(S(=O)(=O)c2ccc(Oc3ccc(C(F)(F)F)cc3)cc2)CC1 [Example 336] | 1 | > 10000 | < 0.1

Now from value to compound:

IC50 (MMP-13) [nM] | IC50 (MMP-1) [nM] | IC50 (MMP-2) [nM] | Compound
0.3 | > 10000 | 0.1 | O=C(CN1CCCCC1)N1CCC(C(=O)NO)(S(=O)(=O)c2ccc(Oc3ccc(C(F)(F)F)cc3)cc2)CC1 [Example 318]
0.5 | > 10000 | 0.2 | O=C(CN1CCOCC1)N1CCC(C(=O)NO)(S(=O)(=O)c2ccc(Oc3ccc(C(F)(F)F)cc3)cc2)CC1 [Example 319]
12.1 | > 10000 | 4 | O=C(CNCc1ccccn1)N1CCC(C(=O)NO)(S(=O)(=O)c2ccc(Oc3ccc(C(F)(F)F)cc3)cc2)CC1 [Example 320]
0.5 | > 10000 | 0.3 | O=C(CNCCO)N1CCC(C(=O)NO)(S(=O)(=O)c2ccc(Oc3ccc(C(F)(F)F)cc3)cc2)CC1 [Example 321]
1.3 | > 10000 | 0.4 | CN(C)CCN(C)CC(=O)N1CCC(C(=O)NO)(S(=O)(=O)c2ccc(Oc3ccc(C(F)(F)F)cc3)cc2)CC1 [Example 323]
0.9 | > 10000 | 0.2 | O=C(CNCc1ccncc1)N1CCC(C(=O)NO)(S(=O)(=O)c2ccc(Oc3ccc(C(F)(F)F)cc3)cc2)CC1 [Example 325]
0.9 | > 10000 | 0.3 | COCCN(CCOC)CC(=O)N1CCC(C(=O)NO)(S(=O)(=O)c2ccc(Oc3ccc(C(F)(F)F)cc3)cc2)CC1 [Example 327]
0.35 | > 10000 | 0.4 | O=C(CN1CCNCC1)N1CCC(C(=O)NO)(S(=O)(=O)c2ccc(Oc3ccc(C(F)(F)F)cc3)cc2)CC1 [Example 328]
0.5 | > 10000 | 0.7 | COCCN1CCN(CC(=O)N2CCC(C(=O)NO)(S(=O)(=O)c3ccc(Oc4ccc(C(F)(F)F)cc4)cc3)CC2)CC1 [Example 330]
0.7 | > 10000 | 0.2 | CCCN(CC(=O)N1CCC(C(=O)NO)(S(=O)(=O)c2ccc(Oc3ccc(C(F)(F)F)cc3)cc2)CC1)CC1CC1 [Example 331]
2.1 | > 10000 | 0.4 | COCCNCC(=O)N1CCC(C(=O)NO)(S(=O)(=O)c2ccc(Oc3ccc(C(F)(F)F)cc3)cc2)CC1 [Example 332]
0.8 | > 10000 | 0.2 | O=C(CCCCNCc1cccnc1)N1CCC(C(=O)NO)(S(=O)(=O)c2ccc(Oc3ccc(C(F)(F)F)cc3)cc2)CC1 [Example 333]
0.7 | > 10000 | 0.3 | O=C(CCCCN1CCCCC1)N1CCC(C(=O)NO)(S(=O)(=O)c2ccc(Oc3ccc(C(F)(F)F)cc3)cc2)CC1 [Example 334]
2.7 | > 10000 | 0.2 | O=C(CCCCNCCO)N1CCC(C(=O)NO)(S(=O)(=O)c2ccc(Oc3ccc(C(F)(F)F)cc3)cc2)CC1 [Example 337]
